Paper PMC10893631, “Receptor-based pharmacophore modeling, molecular docking, synthesis and biological evaluation of novel VEGFR-2, FGFR-1, and BRAF multi-kinase inhibitors” (BMC Chemistry, 2024)

What was measured:
Assay in all cases: NCI SRB growth inhibition (single dose 10 µM / five-dose)
Type in all cases: cell-based, human
RXF 393 = details: Homo sapiens; for inhibition at 10 µM: RXF 393 (Renal cancer), read-out: GI%; for GI50: RXF 393, Renal cancer, five-dose
In short: (§1)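 Seeding varied with cell doubling time (5000–40,000 cells/well). Dilutions were 10-fold or ½ log, five levels in total. Sulforhodamine B staining (0.4% w/v, 10 min, room temperature) of TCA-fixed cells measured growth.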

SF-268 = details: Homo sapiens; for inhibition at 10 µM: SF-268 (CNS cancer), read-out: GI%; for GI50: SF-268, CNS cancer, five-dose
In short: as §1

SNB-75 = details: Homo sapiens; for inhibition at 10 µM: SNB-75 (CNS cancer), read-out: GI%; for GI50: SNB-75, CNS cancer, five-dose
In short: as §1

BT-549 = details: Homo sapiens; for inhibition at 10 µM: BT-549 (Breast cancer), read-out: GI%; for GI50: BT-549, Breast cancer, five-dose
In short: as §1

SK-MEL-5 = details: Homo sapiens; for inhibition at 10 µM: SK-MEL-5 (Melanoma), read-out: GI%; for GI50: SK-MEL-5, Melanoma, five-dose
In short: as §1

NCI-H522 = details: Homo sapiens; for inhibition at 10 µM: NCI-H522 (Non-small cell lung cancer), read-out: GI%; for GI50: NCI-H522, Non-small cell lung cancer, five-dose
In short: as §1

MDA-MB-468 = details: Homo sapiens; for inhibition at 10 µM: MDA-MB-468 (Breast cancer), read-out: GI%; for GI50: MDA-MB-468, Breast cancer, five-dose
In short: as §1

HCT-15 = details: Homo sapiens; for inhibition at 10 µM: HCT-15 (Colon cancer), read-out: GI%; for GI50: HCT-15, Colon cancer, five-dose
In short: as §1

SK-OV-3 = details: Homo sapiens; for inhibition at 10 µM: SK-OV-3 (Ovarian cancer), read-out: GI%; for GI50: SK-OV-3, Ovarian cancer, five-dose
In short: as §1

DU-145 = details: Homo sapiens; for inhibition at 10 µM: DU-145 (Prostate cancer), read-out: GI%; for GI50: DU-145, Prostate cancer, five-dose
In short: as §1

HT29 = details: Homo sapiens, HT-29; for inhibition at 10 µM: HT29 (Colon cancer), read-out: GI%; for GI50: HT29, Colon cancer, five-dose
In short: as §1

MDA-MB-231/ATCC = details: Homo sapiens; for inhibition at 10 µM: MDA-MB-231/ATCC (Breast cancer), read-out: GI%; for GI50: MDA-MB-231/ATCC, Breast cancer, five-dose
In short: as §1

LOX IMVI = details: Homo sapiens; for inhibition at 10 µM: LOX IMVI (Melanoma), read-out: GI%; for GI50: LOX IMVI, Melanoma, five-dose
In short: as §1

HOP-62 = details: Homo sapiens; for inhibition at 10 µM: HOP-62 (Non-small cell lung cancer), read-out: GI%; for GI50: HOP-62, Non-small cell lung cancer, five-dose
In short: as §1

NCI/ADR-RES = details: Homo sapiens; for inhibition at 10 µM: NCI/ADR-RES (Ovarian cancer), read-out: GI%; for GI50: NCI/ADR-RES, Ovarian cancer, five-dose
In short: as §1

CAKI-1 = details: Homo sapiens; for inhibition at 10 µM: CAKI-1 (Renal cancer), read-out: GI%; for GI50: CAKI-1, Renal cancer, five-dose
In short: as §1

786–0 = details: Homo sapiens; for inhibition at 10 µM: 786–0 (Renal cancer), read-out: GI%; for GI50: 786–0, Renal cancer, five-dose
In short: as §1

SF-539 = details: Homo sapiens; for inhibition at 10 µM: SF-539 (CNS cancer), read-out: GI%; for GI50: SF-539, CNS cancer, five-dose
In short: as §1

KM12 = details: Homo sapiens; for inhibition at 10 µM: KM12 (Colon cancer), read-out: GI%; for GI50: KM12, Colon cancer, five-dose
In short: as §1

SR = details: Homo sapiens; for inhibition at 10 µM: SR (Leukemia), read-out: GI%; for GI50: SR, Leukemia, five-dose
In short: as §1

SNB-19 = details: Homo sapiens; for inhibition at 10 µM: SNB-19 (CNS cancer), read-out: GI%; for GI50: SNB-19, CNS cancer, five-dose
In short: as §1

MDA-MB-435 = details: Homo sapiens; for inhibition at 10 µM: MDA-MB-435 (Melanoma), read-out: GI%; for GI50: MDA-MB-435, Melanoma, five-dose
In short: as §1

HL-60(TB) = details: Homo sapiens; for inhibition at 10 µM: HL-60(TB) (Leukemia), read-out: GI%; for GI50: HL-60(TB), Leukemia, five-dose
In short: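 Cells plated at 5000–40,000 cells/well by doubling time; time-zero plates TCA-fixed after 24 h. Compounds (DMSO stocks) added at five 10-fold or ½-log concentrations plus control. Adherent cells TCA-fixed, stained with 0.4% SRB in 1% acetic acid; percentage growth from Tz, C and Ti absorbances.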

## COc1ccc(-c2nc3cc(C(=O)NN=Cc4ccc(OC)c(O)c4)ccc3[nH]2)cc1 [8l, N'-(3-Hydroxy-4-methoxybenzylidene)-2-(4-methoxyphenyl)-1H-benzo[d]imidazole-5-carbohydrazide]
RXF 393
  inhibition at 10 µM: 37.2%
SF-268
  inhibition at 10 µM: 40.4%
SNB-75
  inhibition at 10 µM: 25.8%
BT-549
  inhibition at 10 µM: 10.4%
SK-MEL-5
  inhibition at 10 µM: 55.3%
NCI-H522
  inhibition at 10 µM: 38.2%
MDA-MB-468
  inhibition at 10 µM: 44.4%
HCT-15
  inhibition at 10 µM: < 5%
SK-OV-3
  inhibition at 10 µM: < 5%
DU-145
  inhibition at 10 µM: 27.9%
HT29
  inhibition at 10 µM: > 100%
MDA-MB-231/ATCC
  inhibition at 10 µM: 26.4%
LOX IMVI
  inhibition at 10 µM: 37.9%
HOP-62
  inhibition at 10 µM: 55.5%
NCI/ADR-RES
  inhibition at 10 µM: < 5%
CAKI-1
  inhibition at 10 µM: < 5%
786–0
  inhibition at 10 µM: 18.1%
SF-539
  inhibition at 10 µM: 42.6%
KM12
  inhibition at 10 µM: 34.5%
SR
  inhibition at 10 µM: 72.2%
SNB-19
  inhibition at 10 µM: 16.1%
MDA-MB-435
  inhibition at 10 µM: 26.5%
HL-60(TB)
  inhibition at 10 µM: 52.2%

## COc1ccc(-c2nc3cc(C(=O)NN=Cc4cc(OC)ccc4OC)ccc3[nH]2)cc1 [8m, N'-(2,5-Dimethoxybenzylidene)-2-(4-methoxyphenyl)-1H-benzo[d]imidazole-5-carbohydrazide]
RXF 393
  inhibition at 10 µM: 15.2%
SF-268
  inhibition at 10 µM: 9.02%
SNB-75
  inhibition at 10 µM: < 5%
BT-549
  inhibition at 10 µM: 17.2%
SK-MEL-5
  inhibition at 10 µM: 22.3%
NCI-H522
  inhibition at 10 µM: 21.3%
MDA-MB-468
  inhibition at 10 µM: 16.2%
HCT-15
  inhibition at 10 µM: 13.7%
SK-OV-3
  inhibition at 10 µM: < 5%
DU-145
  inhibition at 10 µM: < 5%
HT29
  inhibition at 10 µM: 25.4%
MDA-MB-231/ATCC
  inhibition at 10 µM: 14.3%
LOX IMVI
  inhibition at 10 µM: 18.8%
HOP-62
  inhibition at 10 µM: 19.4%
NCI/ADR-RES
  inhibition at 10 µM: < 5%
CAKI-1
  inhibition at 10 µM: < 5%
786–0
  inhibition at 10 µM: 29%
SF-539
  inhibition at 10 µM: 32.6%
KM12
  inhibition at 10 µM: 11.7%
SR
  inhibition at 10 µM: 28.5%
SNB-19
  inhibition at 10 µM: < 5%
MDA-MB-435
  inhibition at 10 µM: < 5%
HL-60(TB)
  inhibition at 10 µM: 18.8%

## O=C(NN=Cc1ccccc1O)c1ccc2[nH]c(-c3ccc(Cl)cc3)nc2c1 [8o, 2-(4-Chlorophenyl)-N'-(2-hydroxybenzylidene)-1H-benzo[d]imidazole-5-carbohydrazide]
RXF 393
  inhibition at 10 µM: > 100%
  GI50: 790 nM
SF-268
  inhibition at 10 µM: > 100%
  GI50: 840 nM
SNB-75
  inhibition at 10 µM: > 100%
  GI50: 740 nM
BT-549
  inhibition at 10 µM: 60.6%
  GI50: 3570 nM
SK-MEL-5
  inhibition at 10 µM: > 100%
  GI50: 510 nM
NCI-H522
  inhibition at 10 µM: > 100%
  GI50: 260 nM
MDA-MB-468
  inhibition at 10 µM: > 100%
  GI50: 1510 nM
HCT-15
  inhibition at 10 µM: > 100%
  GI50: 200 nM
SK-OV-3
  GI50: 4530 nM
DU-145
  inhibition at 10 µM: > 100%
  GI50: 1360 nM
HT29
  inhibition at 10 µM: > 100%
  GI50: 1080 nM
MDA-MB-231/ATCC
  inhibition at 10 µM: > 100%
  GI50: 1410 nM
LOX IMVI
  inhibition at 10 µM: > 100%
  GI50: 430 nM
HOP-62
  GI50: 840 nM
NCI/ADR-RES
  inhibition at 10 µM: 56.4%
  GI50: 1150 nM
CAKI-1
  inhibition at 10 µM: > 100%
  GI50: 220 nM
786–0
  inhibition at 10 µM: > 100%
  GI50: 830 nM
SF-539
  inhibition at 10 µM: > 100%
  GI50: 370 nM
KM12
  inhibition at 10 µM: 85.4%
  GI50: 1240 nM
SR
  inhibition at 10 µM: 75.2%
  GI50: 120 nM
SNB-19
  inhibition at 10 µM: > 100%
  GI50: 1120 nM
MDA-MB-435
  inhibition at 10 µM: > 100%
  GI50: 530 nM
HL-60(TB)
  inhibition at 10 µM: 47.1%
  GI50: 310 nM

## COc1cccc(C=NNC(=O)c2ccc3[nH]c(-c4ccc(Cl)cc4)nc3c2)c1 [8q, 2-(4-Chlorophenyl)-N'-(3-methoxybenzylidene)-1H-benzo[d]imidazole-5-carbohydrazide]
RXF 393
  inhibition at 10 µM: > 100%
  GI50: 2060 nM
SF-268
  inhibition at 10 µM: > 100%
  GI50: 2180 nM
SNB-75
  inhibition at 10 µM: > 100%
  GI50: 5690 nM
BT-549
  inhibition at 10 µM: 6.97%
  GI50: 10100 nM
SK-MEL-5
  inhibition at 10 µM: > 100%
  GI50: 4900 nM
NCI-H522
  inhibition at 10 µM: > 100%
  GI50: 2260 nM
MDA-MB-468
  inhibition at 10 µM: > 100%
  GI50: 2970 nM
HCT-15
  inhibition at 10 µM: 63%
  GI50: 5520 nM
SK-OV-3
  inhibition at 10 µM: > 100%
  GI50: 2020 nM
DU-145
  inhibition at 10 µM: > 100%
  GI50: 2040 nM
HT29
  inhibition at 10 µM: > 100%
  GI50: 2380 nM
MDA-MB-231/ATCC
  inhibition at 10 µM: > 100%
  GI50: 1890 nM
LOX IMVI
  inhibition at 10 µM: > 100%
  GI50: 1820 nM
HOP-62
  inhibition at 10 µM: > 100%
  GI50: 1920 nM
NCI/ADR-RES
  inhibition at 10 µM: 23%
  GI50: 94800 nM
CAKI-1
  inhibition at 10 µM: > 100%
  GI50: 3840 nM
786–0
  inhibition at 10 µM: > 100%
  GI50: 1850 nM
SF-539
  inhibition at 10 µM: > 100%
  GI50: 7140 nM
KM12
  inhibition at 10 µM: > 100%
  GI50: 4420 nM
SR
  inhibition at 10 µM: > 100%
  GI50: 4150 nM
SNB-19
  inhibition at 10 µM: > 100%
  GI50: 2170 nM
MDA-MB-435
  inhibition at 10 µM: 98.9%
  GI50: 3900 nM
HL-60(TB)
  inhibition at 10 µM: 50.7%
  GI50: 19500 nM
